Results from the supplement of paper PMC10307832.

Assays:
Assay in all cases: relative viability (nuclei count vs DMSO), 5 days (fraction); higher = more cells survive
[1] = compound: CC1CC(=O)N(C2=CN=C(N=C2N1C3CCCC3)NC4=C(C=C(C=C4)C(=O)NC5CCN(CC5)C)OC)C [NPK76-II-72-1] + Cc1nc(Nc2ncc(C(=O)Nc3c(C)cccc3Cl)s2)cc(N2CCN(CCO)CC2)n1 [Dasatinib] (partner 0.075 µM)
Procedure, shortened: (§1)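 The day after seeding in 1536-well plates, lung cancer cell lines were treated by pin tool with a single drug, or with a fixed anchor-drug dose together with five library-drug doses (not always all listed) in √10 steps. After 5 days, a combined fix-and-stain solution (final 0.05% Triton X-100, 1% formaldehyde, 1 ug/ml Hoechst) was added. Nuclei counted on 4× images gave relative viability as treated counts over vehicle counts, reported as the median of duplicate plates.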

BI-2536 + Crizotinib = compound: CC[C@@H]1C(=O)N(C)c2cnc(Nc3ccc(C(=O)NC4CCN(C)CC4)cc3OC)nc2N1C1CCCC1 [BI-2536] + C[C@@H](Oc1cc(-c2cnn(C3CCNCC3)c2)cnc1N)c1c(Cl)ccc(F)c1Cl [Crizotinib] (partner 1 µM)
Procedure, shortened: as §1

BI-2536 + Olaparib = compound: CC[C@@H]1C(=O)N(C)c2cnc(Nc3ccc(C(=O)NC4CCN(C)CC4)cc3OC)nc2N1C1CCCC1 [BI-2536] + O=C(c1cc(Cc2n[nH]c(=O)c3ccccc23)ccc1F)N1CCN(C(=O)C2CC2)CC1 [Olaparib] (partner 8 µM)
Procedure, shortened: as §1

[2] = compound: CC1CC(=O)N(C2=CN=C(N=C2N1C3CCCC3)NC4=C(C=C(C=C4)C(=O)NC5CCN(CC5)C)OC)C [NPK76-II-72-1] + CS(=O)(=O)CCNCc1ccc(-c2ccc3ncnc(Nc4ccc(OCc5cccc(F)c5)c(Cl)c4)c3c2)o1 [Lapatinib] (partner 2 µM)
Procedure, shortened: as §1

Cell Line	relative viability ([1]; first compound 0.01 µM)	relative viability ([1]; first compound 0.03162 µM)	relative viability ([1]; first compound 0.1 µM)	relative viability ([1]; first compound 0.3162 µM)	relative viability ([1]; first compound 1 µM)	relative viability (BI-2536 + Crizotinib; first compound 0.01 µM)	relative viability (BI-2536 + Crizotinib; first compound 0.03162 µM)	relative viability (BI-2536 + Crizotinib; first compound 0.1 µM)	relative viability (BI-2536 + Crizotinib; first compound 0.3162 µM)	relative viability (BI-2536 + Crizotinib; first compound 1 µM)	relative viability (BI-2536 + Olaparib; first compound 0.01 µM)	relative viability (BI-2536 + Olaparib; first compound 0.03162 µM)	relative viability (BI-2536 + Olaparib; first compound 0.1 µM)	relative viability (BI-2536 + Olaparib; first compound 0.3162 µM)	relative viability (BI-2536 + Olaparib; first compound 1 µM)	relative viability ([2]; first compound 0.01 µM)	relative viability ([2]; first compound 0.03162 µM)	relative viability ([2]; first compound 0.1 µM)	relative viability ([2]; first compound 0.3162 µM)	relative viability ([2]; first compound 1 µM)
NCI-H596	0.544	0.668	0.551	0.591	0.557	0.948	1.05	0.938	0.493	0.443	0.731	0.731	0.59	0.423	0.295	1	1.14	1.07	0.914	1.09
A-427	0.659	0.822	0.688	0.674	0.726	0.927	0.678	0.535	0.119	0.0896	0.727	0.593	0.385	0.191	0.176	1.07	1.04	1.02	1.03	0.953
EMC-BAC-2	0.345	0.295	0.346	0.333	0.367	0.882	0.791	0.701	0.174	0.145	0.463	0.324	0.303	0.207	0.231	0.9	1.05	0.871	0.884	0.912
NCI-H441	0.565	0.709	0.452	0.541	0.727	0.503	0.393	0.218	0.154	0.133	0.522	0.354	0.171	0.148	0.148					
LCLC-103H	0.418	0.442	0.404	0.535	0.447	1.11	0.986	1.08	0.39	0.154	0.742	0.86	0.77	0.358	0.216					
HCC-827	0.252	0.319	0.435	0.388	0.37	0.926	0.968	0.714	0.328	0.305	0.693	0.611	0.531	0.214	0.194	0.194	0.211	0.173	0.171	0.224
NCI-H1355	0.689	0.627	0.744	0.617	0.731	1.06	1.1	0.796	0.198	0.184	0.728	0.598	0.536	0.169	0.17	0.922	0.933	0.967	0.931	1.02
NCI-H1734	0.513	0.493	0.455	0.437	0.509	0.644	0.548	0.35	0.204	0.158	0.605	0.618	0.254	0.176	0.153	1.02	1.11	1.16	1.03	1.17
HARA	0.254	0.233	0.168	0.237	0.219	1.03	1.07	0.636	0.139	0.196	0.8	0.988	0.507	0.139	0.0972	0.762	0.806	0.578	0.722	0.713
HCC-15	0.598	0.637	0.599	0.642	0.649	0.82	0.64	0.426	0.134	0.118	0.612	0.557	0.343	0.163	0.144	0.85	0.879	0.787	0.749	0.895
LCLC-97TM1	0.896	0.917	0.822	0.785	0.8	0.249	0.303	0.2	0.168	0.105	0.463	0.292	0.233	0.0868	0.0916		0.887	0.859	0.739	1.32
RERF-LC-KJ	0.818	0.886	0.722	0.732	0.808	0.894	0.711	0.764	0.174	0.218	0.901	0.571	0.24	0.201	0.223	0.818	0.869	0.841	0.818	0.979
NCI-H1651	0.386	0.46	0.413	0.429	0.419	0.85	0.889	0.81	0.358	0.101	0.185	0.173	0.157	0.142	0.109	0.835	0.928	0.905	0.807	0.837
NCI-H2170	0.599	0.487	0.598	0.315	0.762	1.09	1.13	0.611	0.244	0.288	0.597	0.525	0.39	0.164	0.145	0.267	0.286	0.257		0.268
